In ChEMBL document CHEMBL5291721, “A preclinical secondary pharmacology resource illuminates target-adverse drug reaction associations of marketed drugs” (Nat Commun, 2023):

Experiments:
[1] = biological target: T1, Corticotropin-releasing factor receptor 1 (Homo sapiens, UniProt P34998)
T1 sequence (P34998 whole entry): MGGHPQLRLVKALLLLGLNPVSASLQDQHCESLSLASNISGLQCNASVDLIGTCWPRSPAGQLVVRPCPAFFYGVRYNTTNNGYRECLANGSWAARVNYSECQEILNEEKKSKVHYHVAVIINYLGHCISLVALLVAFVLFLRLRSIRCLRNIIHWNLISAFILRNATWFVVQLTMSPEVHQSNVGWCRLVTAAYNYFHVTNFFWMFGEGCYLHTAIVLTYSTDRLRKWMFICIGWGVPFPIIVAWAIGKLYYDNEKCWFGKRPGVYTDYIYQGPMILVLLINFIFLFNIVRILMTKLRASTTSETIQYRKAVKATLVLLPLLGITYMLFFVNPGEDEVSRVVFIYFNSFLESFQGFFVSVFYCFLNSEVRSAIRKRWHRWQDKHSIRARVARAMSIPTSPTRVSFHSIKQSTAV

[2] = biological target: T2, Corticotropin-releasing factor receptor 2 (Homo sapiens, UniProt Q13324)
T2 sequence (Q13324 whole entry): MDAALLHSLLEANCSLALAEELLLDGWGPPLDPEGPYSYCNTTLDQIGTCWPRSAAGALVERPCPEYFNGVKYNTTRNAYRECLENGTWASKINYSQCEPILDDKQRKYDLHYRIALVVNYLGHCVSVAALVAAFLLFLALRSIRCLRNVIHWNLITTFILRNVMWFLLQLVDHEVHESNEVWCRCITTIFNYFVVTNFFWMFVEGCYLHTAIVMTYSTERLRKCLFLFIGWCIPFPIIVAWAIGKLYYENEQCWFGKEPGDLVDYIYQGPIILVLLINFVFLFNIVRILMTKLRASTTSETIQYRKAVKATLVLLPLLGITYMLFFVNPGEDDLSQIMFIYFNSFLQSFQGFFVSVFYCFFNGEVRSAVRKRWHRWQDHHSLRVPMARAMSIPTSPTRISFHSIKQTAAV

[3] = biological target: T3, Endothelin receptor type B (Homo sapiens, UniProt P24530)
T3 sequence (P24530 whole entry): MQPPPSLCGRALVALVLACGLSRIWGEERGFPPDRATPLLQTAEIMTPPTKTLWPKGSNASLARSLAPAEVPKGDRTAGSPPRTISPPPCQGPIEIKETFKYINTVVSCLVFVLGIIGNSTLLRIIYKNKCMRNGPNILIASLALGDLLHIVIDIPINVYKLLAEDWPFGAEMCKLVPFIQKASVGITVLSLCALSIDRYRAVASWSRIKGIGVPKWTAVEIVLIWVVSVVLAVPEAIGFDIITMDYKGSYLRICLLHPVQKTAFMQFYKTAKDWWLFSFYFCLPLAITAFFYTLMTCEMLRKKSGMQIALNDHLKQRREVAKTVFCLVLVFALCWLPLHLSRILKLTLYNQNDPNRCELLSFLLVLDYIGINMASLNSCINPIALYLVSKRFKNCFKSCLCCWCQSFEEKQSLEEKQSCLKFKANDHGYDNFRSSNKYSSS

[4] = biological target: T4, Neuropeptide Y receptor type 2 (Homo sapiens, UniProt P49146)
T4 sequence (P49146 whole entry): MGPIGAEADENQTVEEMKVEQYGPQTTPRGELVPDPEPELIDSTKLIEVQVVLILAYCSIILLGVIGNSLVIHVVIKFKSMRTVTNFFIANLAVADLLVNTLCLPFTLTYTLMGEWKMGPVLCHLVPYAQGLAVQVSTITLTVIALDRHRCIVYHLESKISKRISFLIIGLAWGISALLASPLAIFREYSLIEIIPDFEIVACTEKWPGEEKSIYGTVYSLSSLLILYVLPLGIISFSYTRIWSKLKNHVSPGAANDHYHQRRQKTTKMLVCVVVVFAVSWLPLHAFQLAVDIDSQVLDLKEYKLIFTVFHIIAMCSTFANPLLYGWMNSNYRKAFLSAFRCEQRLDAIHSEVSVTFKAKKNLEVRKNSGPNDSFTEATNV

[5] = biological target: Neurotensin receptor type 1 (Homo sapiens, UniProt P30989)
[6] = biological target: T5, Peroxisome proliferator-activated receptor gamma (Homo sapiens, UniProt P37231); assay type: functional
T5 sequence (P37231 whole entry): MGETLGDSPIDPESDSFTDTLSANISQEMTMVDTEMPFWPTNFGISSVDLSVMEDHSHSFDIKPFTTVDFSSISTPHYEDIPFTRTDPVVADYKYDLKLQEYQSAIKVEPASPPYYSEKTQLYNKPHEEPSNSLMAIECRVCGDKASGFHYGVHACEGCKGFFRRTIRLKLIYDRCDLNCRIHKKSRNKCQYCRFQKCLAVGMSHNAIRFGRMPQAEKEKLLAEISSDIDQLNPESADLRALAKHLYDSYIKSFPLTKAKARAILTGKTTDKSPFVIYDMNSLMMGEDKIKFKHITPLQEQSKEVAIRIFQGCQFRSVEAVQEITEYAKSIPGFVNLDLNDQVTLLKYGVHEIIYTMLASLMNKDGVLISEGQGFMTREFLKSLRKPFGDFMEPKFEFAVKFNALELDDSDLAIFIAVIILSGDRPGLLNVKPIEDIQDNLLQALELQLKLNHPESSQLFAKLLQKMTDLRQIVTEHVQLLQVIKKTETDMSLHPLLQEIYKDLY

[7] = biological target: Vascular endothelial growth factor receptor 2 (Homo sapiens, UniProt P35968); assay type: functional
Estrogen receptor = biological target: T6, Estrogen receptor (Homo sapiens, UniProt P03372)
T6 sequence (P03372 whole entry): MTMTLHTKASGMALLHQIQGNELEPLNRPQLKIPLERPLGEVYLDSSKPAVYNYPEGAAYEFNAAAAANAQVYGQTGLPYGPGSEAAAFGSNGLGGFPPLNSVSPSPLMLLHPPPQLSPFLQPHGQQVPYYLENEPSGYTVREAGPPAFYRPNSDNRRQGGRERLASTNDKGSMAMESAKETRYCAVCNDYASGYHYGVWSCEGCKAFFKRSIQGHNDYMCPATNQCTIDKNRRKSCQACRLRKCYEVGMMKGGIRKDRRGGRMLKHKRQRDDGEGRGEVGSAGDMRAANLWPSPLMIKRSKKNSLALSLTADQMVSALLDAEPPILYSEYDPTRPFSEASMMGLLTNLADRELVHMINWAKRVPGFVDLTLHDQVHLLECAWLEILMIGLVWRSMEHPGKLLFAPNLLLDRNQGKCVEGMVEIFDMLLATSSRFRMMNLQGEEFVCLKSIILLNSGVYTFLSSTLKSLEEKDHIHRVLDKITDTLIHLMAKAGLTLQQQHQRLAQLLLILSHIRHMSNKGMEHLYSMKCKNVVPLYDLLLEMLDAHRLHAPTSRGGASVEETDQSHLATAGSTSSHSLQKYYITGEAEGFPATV

Measured: AC50
Also: assay procedure not described here.

Vascular endothelial growth factor receptor 2, sequence (P35968 whole entry): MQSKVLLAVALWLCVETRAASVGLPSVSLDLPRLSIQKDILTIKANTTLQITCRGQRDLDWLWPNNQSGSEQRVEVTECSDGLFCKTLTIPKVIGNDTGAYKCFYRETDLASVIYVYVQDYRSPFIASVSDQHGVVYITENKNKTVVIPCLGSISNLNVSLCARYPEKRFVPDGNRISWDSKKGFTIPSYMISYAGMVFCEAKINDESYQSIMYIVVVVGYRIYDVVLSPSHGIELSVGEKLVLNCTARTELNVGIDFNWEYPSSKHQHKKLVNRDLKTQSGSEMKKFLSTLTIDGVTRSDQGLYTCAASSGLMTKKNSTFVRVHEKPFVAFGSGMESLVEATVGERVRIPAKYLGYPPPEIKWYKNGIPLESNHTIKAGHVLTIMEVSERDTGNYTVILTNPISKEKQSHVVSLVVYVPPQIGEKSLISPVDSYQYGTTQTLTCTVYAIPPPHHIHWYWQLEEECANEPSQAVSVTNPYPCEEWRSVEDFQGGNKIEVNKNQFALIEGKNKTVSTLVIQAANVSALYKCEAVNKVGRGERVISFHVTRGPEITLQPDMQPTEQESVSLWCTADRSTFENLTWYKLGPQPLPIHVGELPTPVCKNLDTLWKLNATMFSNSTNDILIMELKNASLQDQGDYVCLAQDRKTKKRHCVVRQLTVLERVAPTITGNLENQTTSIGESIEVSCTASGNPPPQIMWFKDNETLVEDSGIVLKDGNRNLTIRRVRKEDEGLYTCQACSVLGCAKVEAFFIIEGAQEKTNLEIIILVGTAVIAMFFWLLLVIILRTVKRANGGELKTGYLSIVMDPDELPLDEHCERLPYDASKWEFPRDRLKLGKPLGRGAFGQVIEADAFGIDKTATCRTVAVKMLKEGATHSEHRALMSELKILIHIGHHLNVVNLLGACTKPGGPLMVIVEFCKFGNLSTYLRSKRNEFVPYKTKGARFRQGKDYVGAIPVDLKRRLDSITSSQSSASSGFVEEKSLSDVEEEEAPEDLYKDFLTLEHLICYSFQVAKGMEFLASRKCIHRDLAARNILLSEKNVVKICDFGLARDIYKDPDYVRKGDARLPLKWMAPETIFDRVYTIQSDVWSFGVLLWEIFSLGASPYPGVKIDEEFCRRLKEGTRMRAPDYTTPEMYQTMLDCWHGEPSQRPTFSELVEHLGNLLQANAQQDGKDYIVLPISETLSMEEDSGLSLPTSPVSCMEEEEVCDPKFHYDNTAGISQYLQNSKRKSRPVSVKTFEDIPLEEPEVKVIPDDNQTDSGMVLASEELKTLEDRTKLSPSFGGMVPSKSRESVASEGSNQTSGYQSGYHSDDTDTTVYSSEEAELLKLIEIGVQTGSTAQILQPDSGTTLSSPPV
Neurotensin receptor type 1, sequence (P30989 whole entry): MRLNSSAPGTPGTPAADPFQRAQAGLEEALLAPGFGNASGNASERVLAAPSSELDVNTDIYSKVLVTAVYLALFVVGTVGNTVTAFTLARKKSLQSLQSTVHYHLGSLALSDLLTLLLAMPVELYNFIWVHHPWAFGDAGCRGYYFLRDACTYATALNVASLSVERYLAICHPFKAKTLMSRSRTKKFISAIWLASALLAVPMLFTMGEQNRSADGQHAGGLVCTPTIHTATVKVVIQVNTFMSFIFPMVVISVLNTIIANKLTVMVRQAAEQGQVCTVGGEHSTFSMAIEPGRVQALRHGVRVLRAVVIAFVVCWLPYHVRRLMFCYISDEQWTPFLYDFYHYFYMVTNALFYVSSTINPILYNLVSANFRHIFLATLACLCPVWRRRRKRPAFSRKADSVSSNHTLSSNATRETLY

NCC(CC(=O)O)c1ccc(Cl)cc1 (configuration not stated) [BACLOFEN]
not listed: Estrogen receptor
> 30 µM: all other assays above

CC(C)C[C@H]1C(=O)N2CCC[C@H]2[C@]2(O)O[C@](NC(=O)[C@@H]3C=C4c5cccc6[nH]c(Br)c(c56)C[C@H]4N(C)C3)(C(C)C)C(=O)N12 [BROMOCRIPTINE]
not listed: Estrogen receptor
> 30 µM: all other assays above

CCCN1C[C@H](CSC)C[C@@H]2c3cccc4[nH]cc(c34)C[C@H]21 [PERGOLIDE]
> 30 µM: all assays above

C1CCC(C(CC2CCCCN2)C2CCCCC2)CC1 (configuration not stated) [PERHEXILINE]
> 30 µM: [6] | [7]

c1cnc(N2CCN(Cc3ccc4c(c3)OCO4)CC2)nc1 [PIRIBEDIL]
> 30 µM: [6] | [7]

Cc1c(C(=O)NN2CCCCC2)nn(-c2ccc(Cl)cc2Cl)c1-c1ccc(Cl)cc1 [RIMONABANT]
> 30 µM: all assays above

Cn1nnc2c(C(N)=O)ncn2c1=O [TEMOZOLOMIDE]
> 30 µM: all assays above
